One data set has as its target T1, hAR (Homo sapiens, UniProt P10275).
T1 construct: made in house; host or cells: baculovirus/Sf9 insect cells
T1 sequence (P10275 1-920): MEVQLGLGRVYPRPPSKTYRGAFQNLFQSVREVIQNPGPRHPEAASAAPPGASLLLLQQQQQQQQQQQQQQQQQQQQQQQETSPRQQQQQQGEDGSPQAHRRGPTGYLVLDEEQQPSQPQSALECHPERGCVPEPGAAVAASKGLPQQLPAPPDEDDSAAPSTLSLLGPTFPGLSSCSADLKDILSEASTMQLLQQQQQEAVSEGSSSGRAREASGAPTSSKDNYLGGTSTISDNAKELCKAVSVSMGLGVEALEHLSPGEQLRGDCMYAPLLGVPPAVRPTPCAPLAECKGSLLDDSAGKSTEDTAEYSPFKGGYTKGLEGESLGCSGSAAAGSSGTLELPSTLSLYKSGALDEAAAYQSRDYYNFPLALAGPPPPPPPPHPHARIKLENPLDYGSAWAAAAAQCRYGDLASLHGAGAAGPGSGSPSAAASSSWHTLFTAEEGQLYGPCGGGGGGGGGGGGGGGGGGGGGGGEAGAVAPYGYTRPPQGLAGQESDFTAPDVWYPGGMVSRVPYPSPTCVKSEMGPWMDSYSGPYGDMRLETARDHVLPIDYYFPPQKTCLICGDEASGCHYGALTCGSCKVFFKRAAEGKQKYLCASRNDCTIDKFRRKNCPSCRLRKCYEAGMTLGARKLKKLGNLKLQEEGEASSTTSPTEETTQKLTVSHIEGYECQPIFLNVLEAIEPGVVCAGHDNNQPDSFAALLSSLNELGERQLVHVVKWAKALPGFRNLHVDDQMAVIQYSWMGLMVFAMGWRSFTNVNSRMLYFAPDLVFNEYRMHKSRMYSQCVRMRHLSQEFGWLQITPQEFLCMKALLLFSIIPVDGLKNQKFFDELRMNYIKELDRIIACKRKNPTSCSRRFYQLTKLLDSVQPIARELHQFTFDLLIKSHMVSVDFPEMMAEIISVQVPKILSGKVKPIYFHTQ
As to the kind of experiment: Competitive binding of 3H-DHT to hAR extracts. Conditions: baculovirus/Sf9 hAR extract, 1 nM 3H-DHT, one hour at 4° C., mean of multiple tests. On the procedure: The compounds of Formula I have affinity for the androgen receptor. […] The description below describes how the assay was carried out.
Competitive binding analysis was performed on baculovirus/Sf9 generated hAR extracts in the presence or absence of different concentrations of test agent and a fixed concentration of ^3H-dihydrotestosterone (^3H-DHT) as tracer. This binding assay method is a modification of a protocol previously described (Liao S., et. al. J. Steroid Biochem. 20:11-17 1984). Briefly, progressively decreasing concentrations of compounds are incubated in the presence of hAR extract (Chang et al. P.N.A.S. Vol. 89, pp. […], 1992), hydroxylapatite, and 1 nM ^3H-DHT for one hour at 4° C. Subsequently, the binding reactions are washed three times to completely remove excess unbound ^3H-DHT. hAR bound ^3H-DHT levels are determined in the presence of compounds (i.e. competitive binding) and compared to levels bound when no competitor is present (i.e. maximum binding). Compound binding affinity to the hAR is expressed as the concentration of compound at which one half of the maximum binding is inhibited. Table I below provides the results that were obtained for selected compounds (reported data is the mean of multiple tests as shown below)

Another data set addresses androgen receptor (Homo sapiens, UniProt P10275). As to the kind of experiment: AR antagonist cell assay (MMTV-luciferase reporter, MDA-MB453-MMTV clone 54-19). Format: cell-based. As for the experimental part:
The compounds ability to antagonize the effects of androgen on the androgen receptor were determined in a whole cell assay as described immediately below.
Experimental Procedure for AR Antagonist Cell Assay
This cell line is a stable transfected cell line with MDA-MB453 cell background (a human breast tumor cell line expressing androgen receptor). A MMTV minimal promoter containing ARE was first cloned in front of a firefly luciferase reporter gene. Then the cascade was cloned into transfection vector pUV120puro. Electroporation method was used for transfecting MDA-MB-453 cell. Puromycin resistant stable cell line was selected.
Cell Culture Media and Reagents:
Culture medium: DMEM (high glucose, Gibco cat #: 11960-044), 10% FBS, and 1% L-glutamine
Plating medium: DMEM (phenol red free), 10% charcoal treated HyClone serum, 1% L-glutamine
Assay medium: DMEM (phenol red free), 1% charcoal treated HyClone serum, 1% L-glutamine, and 1% penicillin/streptomycin
3× luciferase buffer: 2% beta-mercaptoethanol, 0.6% ATP, 0.0135% luciferine in cell lysis buffer
• 1. Cells are maintained in culture medium, splitting cells when they reach 80-90% confluence • 2. To test compounds, 10,000 cells/well are plated to opaque 96 cell culture plate in 100 ul/well plating medium, culture for overnight at 37° C. in cell culture incubator • 3. Carefully remove plating medium, then add 80 ul/well of pre-warmed assay medium, add 10 ul/well testing compound (final concentration at) 1000 nM, 200 nM, 40 nM, 8 nM, 1.6 nM, and 0.32 nM), incubate at 37° C. for 30 minutes • 4. Add 10 ul/well freshly prepared DHT (final concentration at 100 pM) to each well, incubate at 37° C. for 17 hr (overnight) • 5.
The results are reported as the mean of multiple tests as described below (the numbers of tests are indicated in the footnote). N.D. denotes that the compound was not tested.

The subject of the next data set is male Syrian hamsters. As to the kind of experiment: Animal model for inhibition of sebum production (hamster ear). Format: in vivo, Syrian hamster. Conditions: five days a week, 4 weeks; for % CE reduction / % WE reduction: vs vehicle control. On the procedure:
Luderschmidt et al. describes an animal model for testing whether compounds are capable of modulating sebum secretion. Arch. Derm. Res. 258, 185-191 (1977). This model uses male Syrian hamsters, whose ears contain sebaceous glands. The products of Examples 1 and 2 were screened in this model.
Testing for sebum inhibition was carried out in the following manner. Male Syrian hamsters aged 9 to 10 weeks were introduced into the laboratory environment and acclimated for 2 weeks prior to use in the study. Each group consisted of 5 animals and run in parallel with vehicle and positive controls. Prior to administration, a sufficient quantity each compound was dissolved in 1 mL of a solvent consisting of transcutol, propylene glycol, and ethanol (2/2/6 v/v/v) to achieve the final concentration described in Table III.
Animals were dosed topically twice daily, five days a week, for 4 weeks. Each dose consisted of 25 micro liters of vehicle control or drug. The dose was applied to the ventral surfaces of both the right and left ears. All animals were sacrificed approximately 18-24 hours after the final dose. The right ears were collected from each animal and used for sebum analysis.
The ears were prepped for HPLC analysis in the following manner. One 8 mm distal biopsy punch was taken, just above the anatomical “V” mark in the ear to normalize the sample area. The punch was pulled apart. The ventral biopsy surface (the area where the topical dose was directly applied to the sebaceous glands) was retained for testing and the dorsal surface of the biopsy punch was discarded.
Tissue samples were blown with N2 gas and stored at −80° C. under nitrogen until HPLC analysis. In addition to ear samples, an aliquot of each drug and vehicle (at least 250 ul) was also stored at −80° C. for inclusion in the HPLC analysis.
HPLC analysis was carried out on an extract of the tissue sample. Tissue samples were contacted with 3 ml of solvent (a 4:1 admixture of 2,2,4-trimethylpentane and isopropyl alcohol). The mixture was shaken for 15 minutes and stored overnight at room temperature, protected from light. The next morning 1 milliliter of water was added to the sample and shaken for 15 minutes. The sample was then centrifuged at approximately 1500 rpm for 15 minutes. Two ml of the organic phase (top layer) was transferred to a glass vial, dried at 37° C., under nitrogen, for approximately 1 hour, and then lyophilized for approximately 48 hours. The samples were then removed from the lyophilizer and each vial was reconstituted with 600 μl of solvent A (trimethylpentane/tetrahydrofuran (99:1). The samples were then recapped and vortexed for 5 minutes.
200 μl of each sample was then transferred to a pre-labeled 200 μl HPLC vial with 200 μL glass inserts. The HPLC vials were placed in the autosampler tray for the Agilent 1100 series HPLC unit. The Agilent 1100 HPLC system consisted of a thermostated autosampler, a quarternary pump, a column heater, and an A/D interface module. All components were controlled by Agilent ChemStation software. A Waters Spherisorb S3W 4.6×100 mm analytical column was maintained at 30° C. by the Agilent column heater unit. The HPLC autosampler was programmed to maintain the sample temperature at 20 C. throughout the run.
10 uL of each sample was injected in triplicate into the column. Two solvents were used for the solvent gradient. Solvent A was an admixture of trimethylpentane and tetrahydrofuran (99:1). Solvent B was ethylacetate. The gradient utilized is described in the table below: […]
The Sedex 75 Evaporative Light Scattering Detector (ELSD) was operated at 45° C. with a gain of 5, and N2 pressure maintained at 3.1 bar. Analog signal obtained by the instrument was sent to the Agilent A/D interface module where it was converted to a digital output. The conversion was based on a 10000 mAU/volt set point and the data rate was set at 10 Hz (0.03 min). […]

The next data set concerns patients. Conditions: after 7 years of treatment; cited from earlier work.

Structures are written as SMILES. Read-outs that look alike come from different tables or passages of the source.

As to `N#Cc1ccc(OC2CCOC2=O)cc1C(F)(F)F` (single isomer, unassigned; (-)) [Example 6, (−)-4-(2-Oxo-tetrahydro-furan-3-yloxy)-2-trifluoromethyl-benzonitrile], at hAR (read-out: ARB (IC50)), the half-inhibitory concentration (IC50) was 1670 nM.

As to `N#Cc1ccc(OC2CCOC2=O)cc1C(F)(F)F` (single isomer, unassigned; (+)) [Example 5, (+)-4-(2-Oxo-tetrahydro-furan-3-yloxy)-2-trifluoromethyl-benzonitrile], the melting point fell in the range of 107 to 108 °C. In addition, the IC50 on hAR (read-out: ARB (IC50)) turned out to be 9800 nM.

In turn, `CC1(C)COC(=O)[C@@H]1Oc1ccc(C#N)c(C(F)(F)F)c1` [Example 2, (R)-(+)-4-(4,4-Dimethyl-2-oxo-tetrahydro-furan-3-yloxy)-2-trifluoromethyl-benzonitrile] came in with a melting point of 89.9 to 90.7 °C. For the same compound, at hAR (ARB (IC50)), the IC50 is 71 nM. Inhibition at androgen receptor was half-maximal at 47 nM (IC50). In addition, in the data set with male Syrian hamsters (3% w/v topical twice daily), the “Sum of WE & WE” value worked out at 171, the “% CE reduction” value came out at 79% and the “% WE reduction” value worked out at 92%.

On to `NCCCC(O)(P(=O)(O)O)P(=O)(O)O` [alendronate], for which the “Increase in spinal BMD” value in the data set on patients is given as at most 11%.

As to `CC1(C)COC(=O)[C@H]1Oc1ccc(C#N)c(C(F)(F)F)c1` [Example 3, (S)-(−)-4-(4,4-Dimethyl-2-oxo-tetrahydro-furan-3-yloxy)-2-trifluoromethyl-benzonitrile], the melting point was 83.1 to 84.4 °C. Also, at hAR (ARB (IC50)), the half-maximal inhibitory concentration (IC50) was above 10000 nM. In addition, the concentration for half-maximal inhibition (IC50) on androgen receptor (inhibition of induction by 100 pM DHT, 17 hr, mean of multiple tests, read-out: ARCell (IC50)) is above 1000 nM.

Turning to `CC1(C)COC(=O)C1Oc1ccc(C#N)c(C(F)(F)F)c1` (racemic) [Example 1, (±)-4-(4,4-Dimethyl-2-oxo-tetrahydro-furan-3-yloxy)-2-trifluoromethyl-benzonitrile)], the IC50 at hAR (ARB (IC50)) came to 122 nM. On androgen receptor, this compound displayed a half-inhibitory concentration (IC50) of 60 nM. For the same compound, in the data set on male Syrian hamsters (1% w/v topical twice daily), the “Sum of WE & WE” value amounted to 128, the “% CE reduction” value is 55% and the “% WE reduction” value was 73%.

The compound `N#Cc1ccc(OC2CCOC2=O)cc1C(F)(F)F` (racemic) [Example 4, (±)-4-(2-Oxo-tetrahydro-furan-3-yloxy)-2-trifluoromethyl-benzonitrile] registered a melting point of 120 °C. Also, the IC50 at hAR (read-out: ARB (IC50)) turned out to be 5850 nM.

The record behind these values is patent US20070207987A1, “Androgen Modulators” (WARNER-LAMBERT COMPANY LLC, priority 2004, published 2007).
